These results are taken from US20200316113A1, “USE OF COMPOSITION COMPRISING FERROUS AMINO ACID CHELATE IN MANUFACTURE OF MEDICAMENT FOR INHIBITING ANGIOGENESIS” (PROFEAT BIOTECHNOLOGY CO., LTD., priority 2017, published 2020).

This experiment relates to human umbilical vein endothelial cells (HUVECs). Kind of experiment: MTT assay, effect of VEGF and Composition A1 on cell proliferation. The class given is cell-based. The note with it: 0, 24, 48 and 72 hours, control group as basis. On the procedure:
Recombinant human vascular endothelial growth factor (VEGF) was purchased from R&D systems; Cat No. 293-VE. The HUVECs were used in the experiments. The cells were seeded in a 24-well plate at a density of 2×10^4 cells/well. The experiments include control group (not treated with VEGF) and the groups respectively treated with 1 ng/mL VEGF, 5 ng/mL VEGF, 10 ng/mL VEGF and 20 ng/mL VEGF for 0 hour, 24 hours, 48 hours and 72 hours. Each group was triplicated. The MTT assays were performed and values of OD 565 were measured in order to observe the effect of VEGF on cell growth.
Background: Tetrazolium assays rely on reduction of a dye to a coloured formazan, in cell work by metabolically active cells.

Turning to VEGF, the “cell number / cell proliferation of HUVEC (OD 565, MTT)” value runs as follows: (1 ng/mL VEGF) “not significant”; (5 ng/mL VEGF) “not significant”; (10 ng/mL VEGF) “increased”; (20 ng/mL VEGF) “increased”.
